# Test results as given in patent US8476235B2 (Apotex Technologies Inc., priority 2006, dated 2013).
# Like-named read-outs stand apart in the source and are kept apart here.
# Key:
# [1] = speciation calculation using experimentally determined pKas (FIG. 8); format: physicochemical; details: pH 2.7, concentration 0.5M
# Excerpt: FIG. 8 illustrates the speciation calculation of the dipeptide H-D-iGlu-D-Trp-OH and its salt using experimentally determined pKas of the acid and amine groups. LH2 is the diacid form of the peptide H-D-iGlu-D-Trp-OH, LH is the mono carboxylic acid salt of H-D-iGlu-D-Trp-OH. An example of such is the mono ammonium salt. L refers to the diacid salt form and one such example is the disodium salt of the peptide H-D-iGlu-D-Trp-OH.
# The pKas of the acid and amine groups of H-D-iGlu-D-Trp-OH are experimentally determined. In FIG. 8, LH2 is thymodepressin, LH is the monocarboxylic acid salt, L is the dicarboxylic acid salt, and LH3 is the acid addition salt of thymodepressin. The X axis provides the pH of the solution. The Y axis provides the % formation relative to L (the default terminology of the software) and reports the molar fraction of the species present at a particular pH. The concentration of 0.5M is used to reflect the equivalency of 1 gm of thymodepressin in 6 ml water during isolation purposes. […] For this reason, thymodepressin precipitates at pH 2.7 and can be filtered. The mother liquor can be concentrated to obtain a second crop of thymodepressin. The plot confirms the theoretical prediction that the diacid form of H-D-iGlu-D-Trp-OH predominates at pH of about 2.5 to about 3.0, which is the pH for the isolation of the diacid from water as a precipitate. […]
# pH of solution = format: physicochemical; details: in solution
# water solubility = format: physicochemical; details: in water, organic solvent free
# [2] = solid form, cited from earlier work
# [3] = HPLC method B
# Procedure: In method B, the samples are analyzed with a normal reverse phase column, there is virtually no difference in the retention times of the samples.
molecule,measurement,setting,value
"N[C@H](CCC(=O)N[C@H](Cc1c[nH]c2ccccc12)C(=O)O)C(=O)O [thymodepressin, D-isoglutamyl-D-tryptophan]",molar fraction present as dicarboxylic acid form (LH2),[1],about 75%
same,pH of a solution,pH of solution,about 3
same,water solubility,water solubility; listed as H-D-iGlu-D-Trp-OH,< 23 mg per mL
same,water solubility,water solubility; listed as crystalline thymodepressin,about 20 mg per mL
same,solubility,water solubility; water,~23 mg/mL
D-isoglutamyl-D-tryptophan disodium salt,hygroscopicity (in words),[2]; listed as D-isoglutamyl-D-tryptophan disodium salt,hygroscopic
same,hygroscopicity (in words),[2]; disodium salt,extremely hygroscopic
"D-isoglutamyl-D-tryptophan, mono ammonium salt (1:1)",purity at 254 nm after 2 years of storage,[3],99.8%
